# From patent publication US20100029615A1, “BENZIMIDAZOLE DERIVATIVES” (priority 2006, published 2010)
# Counter-ions that a name gives are not always drawn.
# Target: T1, SMO (Mus musculus, UniProt P56726)
# T1 construct: endogenous in cells; host or cells: C3H10T1/2 (ATCC #CCL-226)
# Test: Smoothened (SMO)/Sonic Hedgehog (SHh) Transient Transcriptional Activation Assay (Gli-luciferase reporter in C3H10T1/2 cells)
# Assay type: cell-based, murine
# Settings: 2 uM test compound, SHh 250 ng/ml, 20 hrs
# Procedure: As noted above, the compounds of the invention are useful as inhibitors of SMO. Methods for determining the in vitro activity of these compounds are described below: Smoothened (SMO)/Sonic Hedgehog (SHh) Transient Transcriptional Activation Assay
# On Day 1,2×10^6 C3H10T1/2 cells (ATCC #CCL-226) were split and seeded in 12 mls of growth medium Basal Medium Eagle (BME, Invitrogen #21010-046) supplemented with 2 mM L-glutamine (Invitrogen #25030-081), 0.1 units/ml penicillin and 0.1 ug/ml streptomycin (Invitrogen #15140-122), and 10% Fetal Bovine Serum (FBS, Invitrogen #16140-071) in a T-75 flask (Costar #3376). They were allowed to attach for 4 hours at 37° C., 5% CO2. The cells were then transfected using Fugene 6 (Roch #11 814 443 001) in the following reaction: 48 ul Fugene 6 and 745 ul Opti-MEM (Invitrogen #31985-070) were mixed and allowed to sit at room temperature for 5 minutes. 8 ug of pGL4.14/mGli(CS) DNA (10× murine Gli response elements and minimal CS promoter) and 0.5 ug of pEGFP DNA (Clontech) were added, gently mixed and incubated at room temperature for 20 minutes. This entire transfection mix was then added to the T-75 flask containing the cells. The cells were incubated at 37 °C, 5% C02 for 18-24 hrs.
# On Day 2, the transfected cells were trypsinized and seeded into white 96 well plates (Costar #3917) in 100ul/well of growth medium at a concentration of 20,000 cells/well. The cells were allowed to recover for 4 hrs before adding serum starvation medium Dulbecco's Modified Eagle Medium (DMEM, Invitrogen #21063-029) supplemented with 2 mM L-glutamine, 0.1 units/ml penicillin and 0.1 ug/ml streptomycin, and 0.5% Calf Serum (CS, Invitrogen #26170-043). The growth media was aspirated off, and the cells were rinsed with 100 ul of starvation media. 95 ul of starvation media was then added to each well. The cells were incubated for 20 hrs at 37 °C, 5% C02.
# On Day 3, cells were dosed with test compounds at a final concentration ranging from 2 uM to 2 nM. Immediately after dosing cells with compounds, recombinant human sonic hedgehog (SHh, R&D Systems #1845-SH) was add to a final concentration of 250 ng/ml. A 25 ug vial of SHh was reconstituted with 250 ul PBS/0.1% BSA to give a 100 ng/ul working stock. This working stock was then diluted 1:20 in starvation media. The transfected cells were incubated with compounds and SHh for 20 hrs at 37 °C, 5% C02.
# Luciferase assays were conducted on Day 4 using Dual-Glo Luciferase assay system (Promega #E2940) according to Promega's protocol. Briefly, Dual-Glo luciferase reagent was made up and 100 uls were added to each well of the 96 well plate containing media. Plates were shaken at room temperature for 10 minutes, and then read on TopCount (Perkin-Elmer). The luminescence was recorded.
# T1 sequence (P56726 33-793): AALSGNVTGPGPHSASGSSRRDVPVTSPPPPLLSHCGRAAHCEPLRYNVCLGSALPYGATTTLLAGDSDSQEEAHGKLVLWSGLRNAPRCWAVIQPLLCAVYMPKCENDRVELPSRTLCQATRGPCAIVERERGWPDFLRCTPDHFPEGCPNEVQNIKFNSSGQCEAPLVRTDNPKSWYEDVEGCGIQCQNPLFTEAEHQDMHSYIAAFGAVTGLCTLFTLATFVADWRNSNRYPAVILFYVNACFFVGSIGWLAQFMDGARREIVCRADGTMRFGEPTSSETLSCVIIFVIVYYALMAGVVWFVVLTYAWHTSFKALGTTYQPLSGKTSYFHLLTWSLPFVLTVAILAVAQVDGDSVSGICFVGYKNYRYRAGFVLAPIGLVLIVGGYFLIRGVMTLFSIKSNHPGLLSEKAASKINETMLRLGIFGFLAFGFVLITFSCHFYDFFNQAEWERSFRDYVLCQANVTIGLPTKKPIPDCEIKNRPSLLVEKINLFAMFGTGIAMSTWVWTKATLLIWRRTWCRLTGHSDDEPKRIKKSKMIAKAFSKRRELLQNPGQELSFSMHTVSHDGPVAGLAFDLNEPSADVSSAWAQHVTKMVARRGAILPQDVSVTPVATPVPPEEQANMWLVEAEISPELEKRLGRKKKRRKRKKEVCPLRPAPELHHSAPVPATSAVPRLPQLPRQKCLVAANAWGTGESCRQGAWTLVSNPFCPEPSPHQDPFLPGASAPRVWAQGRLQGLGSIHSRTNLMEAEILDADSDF
row,SMO % inhibition at 2 uM [%],Molecule
1,92,"N-((1R,3R)-3-(5-Methoxy-1H-benzo[d]imidazol-2-yl)cyclohexyl)-2,3-dihydrobenzo[b][1,4]dioxine-6-carboxamide and N-((1S,3S)-3-(5-methoxy-1H-benzo[d]imidazol-2-yl)cyclohexyl)-2,3-dihydrobenzo[b][1,4]dioxine-6-carboxamide [Example 49]"

# Same assay, conditions: C3H 10T1/2, 2 uM test compound, SHh 250 ng/ml, 20 hrs, read-out: SMO % inhibition at 2 uM
row,inhibition at 2 µM [%],Molecule
1,59,"COCCn1c(C2CCCC(NC(=O)c3ccc4c(c3)OCCO4)C2)nc2ccccc21 (stereo not drawn) [Example 16, N-(3-(1-(2-Methoxyethyl)-1H-benzo[d]imidazol-2-yl]cyclohexyl)-2,3-dihydrobenzo[b][1,4]dioxine-6-carboxamide]"

# Same assay, conditions: C3H 10T1/2, 2 μM test compound, SHh 250 ng/ml, 20 hrs, read-out: SMO CELL % INHIBITION @ 2 μM
row,inhibition at 2 µM [%],Molecule
1,105,"O=C1COc2ccc(C(=O)N[C@@H]3CCC[C@H](c4nc5cc(Cl)ccc5[nH]4)C3)cc2N1 [Example 299, N-[(1R,3S)-3-(5-chloro-1H-benzimidazol-2-yl)cyclohexyl]-3-oxo-3,4-dihydro-2H-1,4-benzoxazine-6-carboxamide (+)-tartrate]"
2,95,"O=C(CCCC(=O)NC1CCCC(c2nc3ccccc3[nH]2)C1)Nc1ccccc1 (stereo not drawn) [Example 129, N-[3-(1H-benzimidazol-2-yl)cyclohexyl]-N′-phenylpentane diamide triflouroacetate]"
3,93,"O=C(N[C@@H]1CCC[C@H](c2nc3ccccc3[nH]2)C1)c1cnc(O)c(Cl)c1 [Example 169, N-[(1R,3S)-3-(1H-benzimidazol-2-yl)cyclohexyl]-5-chloro-6-hydroxynicotin-amide HCl]"
4,116,"O=C(NC1CCCC(c2nc3ccccc3[nH]2)C1)c1c[nH]c(=O)[nH]c1=O (stereo not drawn) [Example 108, N-[3-(1H-benzimidazol-2-yl)cyclohexyl]-2,4-dioxo-1,2,3,4-tetrahydropyr-imidine-5-carboxamide triflouroacetate]"
5,108,"CC(C)c1ccc(NC(=O)N[C@@H]2CCC[C@H](c3nc4ccccc4[nH]3)C2)cc1 [Example 236, 1-[(1R,3S)-3-(1H-benzimidazol-2-yl)cyclohexyl]-3-(4-isopropylphenyl) urea]"
6,114,"O=C1Cc2cc(C(=O)N[C@@H]3CCC[C@H](c4nc5cc(C(F)(F)F)ccc5[nH]4)C3)ccc2N1 [Example 286, 2-oxo-N-{(1R,3S)-3-[5-(trifluoromethyl)-1H-benzimidazol-2-yl]cyclohexyl} indoline-5-carboxamide HCl]"
7,37,"O=C(N[C@@H]1CCC[C@H](c2nc3ccccc3[nH]2)C1)c1ccc2nonc2c1 [Example 190, N-[(1R,3S)-3-(1H-benzimidazol-2-yl)cyclohexyl]-2,1,3-benzoxadiazole-5-carboxamide triflouroacetate]"
8,75,"COc1cc(C(=O)NC2CCCC(c3nc4ccccc4[nH]3)C2)nc(OC)n1 (stereo not drawn) [Example 119, N-[3-(1H-benzimidazol-2-yl)cyclohexyl]-2,6-dimethoxypyr-imidine-4-carboxamide triflouroacetate]"
9,61,"COc1ccc2oc(C(=O)N[C@@H]3CCC[C@H](c4nc5ccccc5[nH]4)C3)cc2c1 [Example 184, N-[(1R,3S)-3-(1H-benzimidazol-2-yl)cyclohexyl]-5-methoxy-1-benzofuran-2-carboxamide triflouroacetate]"
10,49,"COc1cc(OC)cc(C(=O)NC23CCCC(c4nc5ccccc5n4C)(C2)C3)c1 [Example 245, 3,5-dimethoxy-N-(5-(1-methyl-1H-benzo[d]imidaz-ol-2-yl)bicyclo[3.1.1]heptan-1-yl)benzamide]"
11,91,"O=C(NC12CCCC(c3nc4ccccc4[nH]3)(C1)C2)c1ccc2c(c1)OCCO2 [Example 87, N-[5-(1H-benzimidazol-2-yl)bicyclo[3.1.1]hept-1-yl]-2,3-dihydro-1,4-benzodioxine-6-carboxamide]"
12,108,"O=C(Nc1ccc(Cl)cc1Cl)N[C@@H]1CCC[C@H](c2nc3ccccc3[nH]2)C1 [Example 234, 1-[(1R,3S)-3-(1H-benzimidazol-2-yl)cyclohexyl]-3-(2,4-dichlorophenyl) urea]"
13,100,"O=C(Cn1ccc2sccc2c1=O)NC1CCCC(c2nc3ccccc3[nH]2)C1 (stereo not drawn) [Example 127, N-[3-(1H-benzimidazol-2-yl)cyclohexyl]-2-(4-oxothieno[3,2-c]pyridin-5(4H)-yl)acetamide HCl]"
14,105,"COc1cc(C(=O)NC2CCCC(c3nc4ccccc4[nH]3)C2)cc2c1OCCO2 (stereo not drawn) [Example 139, N-[3-(1H-benzimidazol-2-yl)cyclohexyl]-8-methoxy-2,3-dihydro-1,4-benzodioxine-6-carboxamide triflouroacetate]"
15,73,"O=C(COCc1ccccc1)NC1CCCC(c2nc3ccccc3[nH]2)C1 (stereo not drawn) [Example 104, N-[3-(1H-benzimidazol-2-yl)cyclohexyl]-2-(benzyloxy)-acetamide triflouroacetate]"
16,84.7,"O=C(NC12CCCC(c3nc4cc(C(F)(F)F)ccc4[nH]3)(C1)C2)c1ccc2c(c1)CCCO2 [Example 276, N-{5-[5-(trifluoromethyl)-1H-benzimidazol-2-yl]bicyclo[3.1.1]hept-1-yl}chromane-6-carboxamide]"
17,78.8,"N#Cc1ccc(NC(=O)NC23CCCC(c4nc5cc(C(F)(F)F)ccc5[nH]4)(C2)C3)cc1 [Example 261, 1-(4-cyanophenyl)-3-{5-[5-(trifluoromethyl)-1H-benzimidazol-2-yl]bicyclo[3.1.1]hept-1-yl}urea]"
18,67,"O=C(CCC1CCCC1)NC1CCCC(c2nc3ccccc3[nH]2)C1 (stereo not drawn) [Example 54, N-[3-(1H-benzimidazol-2-yl)cyclohexyl]-3-cyclopentylpro-panamide HCl]"
19,97,"COc1ncccc1C(=O)NC1CCCC(c2nc3ccccc3[nH]2)C1 (stereo not drawn) [Example 109, N-[3-(1H-benzimidazol-2-yl)cyclohexyl]-2-methoxynico-tinamide triflouroacetate]"
20,55,"CCOC(=O)CCCCC(=O)NC1CCCC(c2nc3ccccc3[nH]2)C1 (stereo not drawn) [Example 98, ethyl 6-{[3-(1H-benzimidazol-2-yl)cyclohexyl]amino}-6-oxohexanoate trifl;uoroacetate]"
21,46,"Cc1nc2cc(C(=O)N[C@@H]3CCC[C@H](c4nc5ccccc5[nH]4)C3)ccc2s1 [Example 215, N-[(1R,3S)-3-(1H-benzimidazol-2-yl)cyclohexyl]-2-methyl-1,3-benzothiazole-5-carboxamide triflouroacetate]"
22,47,"Cc1cc(C)n2nc(C(=O)N[C@@H]3CCC[C@H](c4nc5ccccc5[nH]4)C3)cc2n1 [Example 194, N-[(1R,3S)-3-(1H-benzimidazol-2-yl)cyclohexyl]-5,7-dimethylpyrazolo-[1,5-a]pyrimidine-2-carboxamide triflouroacetate]"
23,50,"Cc1nc2cc(C(=O)N[C@@H]3CCC[C@H](c4nc5ccccc5[nH]4)C3)ccc2[nH]1 [Example 197, N-[(1R,3S)-3-(1H-benzimidazol-2-yl)cyclohexyl]-2-methyl-1H-benzimidazole-5-carboxamide triflouroacetate]"
24,83,"C[S+]([O-])c1ccc(C(=O)NC2CCCC(c3nc4ccccc4[nH]3)C2)cc1 (stereo not drawn) [Example 126, N-[3-(1H-benzimidazol-2-yl)cyclophexyl]-4-(methylsulfinyl) benzamide triflouroacetate]"

row,Molecule,inhibition at 2 µM [%]
1,O=C(N[C@@H]1CCC[C@@H](c2nc3ccccc3[nH]2)C1)c1ccc2c(c1)OCCO2 [Example 241],63
